Measured values published in ChEMBL document CHEMBL5506038, “Discovery of LC-MI-3: A Potent and Orally Bioavailable Degrader of Interleukin-1 Receptor-Associated Kinase 4 for the Treatment of Inflammatory Diseases” (J Med Chem, 2024).
The source made the active and inactive calls. No cut-off for these calls is given here.

How the values were obtained:
[1] = biological target: T1, Interleukin-1 receptor-associated kinase 4 (Homo sapiens, UniProt Q9NWZ3); assay: (§1) Inhibition of IRAK4 (unknown origin)
T1 sequence (Q9NWZ3 whole entry): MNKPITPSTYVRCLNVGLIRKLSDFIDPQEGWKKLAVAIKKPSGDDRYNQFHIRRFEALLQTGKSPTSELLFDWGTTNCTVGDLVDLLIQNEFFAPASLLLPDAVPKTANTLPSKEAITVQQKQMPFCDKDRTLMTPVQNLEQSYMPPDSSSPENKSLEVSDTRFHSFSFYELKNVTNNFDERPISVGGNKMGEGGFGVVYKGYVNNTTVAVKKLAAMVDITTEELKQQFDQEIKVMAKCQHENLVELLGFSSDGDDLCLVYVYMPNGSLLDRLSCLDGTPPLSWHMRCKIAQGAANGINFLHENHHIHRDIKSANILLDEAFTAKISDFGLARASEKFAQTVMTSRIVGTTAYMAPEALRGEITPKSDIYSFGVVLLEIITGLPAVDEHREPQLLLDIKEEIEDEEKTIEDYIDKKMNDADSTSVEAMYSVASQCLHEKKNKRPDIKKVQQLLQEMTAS

[2] = biological target: Protein cereblon/Interleukin-1 receptor-associated kinase 4 (Mus musculus) (UniProt Q8C7D2+Q8R4K2); assay: PROTAC activity at IRAK4/CRBN in mouse BaF3 cells assessed as reduction in IRAK4 level at 100 nM incubated for 12 hrs by Western blot analysis relative to control; assay type: cell-based; parameters: scale not given: the % may be the effect or the level left
[3] = biological target: TRAF2 and NCK-interacting protein kinase (Homo sapiens) (UniProt Q9UKE5); assay: Inhibition of TNIK (unknown origin) at 1 uM relative to control
[4] = biological target: T2, Interleukin-1 receptor-associated kinase 4 (Mus musculus) (UniProt Q8R4K2); assay: Inhibition of IRAK4 in LPS-induced mouse RAW264.7 cells assessed as effect on IkappaB-alpha level at 1 to 5 uM pretreated with LPS for 1 hr followed by compound administration and measured after 2 hrs by Western blotting analysis; assay type: cell-based; conditions: dose 1-5 µM
T2 sequence (whole entry): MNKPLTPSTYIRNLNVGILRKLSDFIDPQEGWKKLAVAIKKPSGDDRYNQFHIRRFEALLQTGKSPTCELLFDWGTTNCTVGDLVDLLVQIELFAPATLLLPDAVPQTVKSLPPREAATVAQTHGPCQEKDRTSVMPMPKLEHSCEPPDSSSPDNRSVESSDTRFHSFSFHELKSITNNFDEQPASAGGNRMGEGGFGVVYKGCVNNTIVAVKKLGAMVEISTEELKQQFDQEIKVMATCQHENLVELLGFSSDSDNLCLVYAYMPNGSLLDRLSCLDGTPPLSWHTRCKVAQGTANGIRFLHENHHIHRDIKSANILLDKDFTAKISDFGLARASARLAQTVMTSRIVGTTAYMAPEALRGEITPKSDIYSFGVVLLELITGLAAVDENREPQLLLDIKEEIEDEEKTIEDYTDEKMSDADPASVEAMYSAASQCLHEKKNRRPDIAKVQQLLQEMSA

Mus musculus = assay: Anti-inflammatory activity against LPS-induced acute […] injury C57BL/6 mouse model assessed as reduction in ERK level at 20 mg/kg, IG pretreated with compound for 12 hrs followed by LPS-induction and measured after 6 hrs; assay type: functional, organism-based; conditions: time 18.0 hrs
[5] = biological target: Tyrosine-protein kinase JAK1 (Homo sapiens) (UniProt P23458); assay: Inhibition of JAK1 (unknown origin) at 1 uM relative to control
[6] = biological target: Mitogen-activated protein kinase kinase kinase 19 (Homo sapiens) (UniProt Q56UN5); assay: Inhibition of YSK4 (unknown origin) at 1 uM relative to control
RAW264.7 [7] = assay: Activation of NF-kappaB pathway in LPS-induced mouse RAW264.7 cells expressing EGFP at 5 uM pretreated with compound for 1 hr followed by LPS-induction and measured after 6 hrs by flow cytometry analysis; assay type: cell-based; conditions: filed as activator, time 7.0 hrs
[8] = biological target: Interleukin-1 receptor-associated kinase 1 (Homo sapiens) (UniProt P51617); assay: Inhibition of IRAK1 (unknown origin) at 1 uM relative to control
[9] = biological target: T2, Interleukin-1 receptor-associated kinase 4 (Mus musculus); assay: Inhibition of IRAK4 in LPS-induced mouse RAW264.7 cells assessed as reduction in p38 level at 1 to 5 uM pretreated with LPS for 1 hr followed by compound administration and measured after 2 hrs by Western blotting analysis; assay type: cell-based; conditions: dose 1-5 µM
[10] = biological target: Serine/threonine-protein kinase RIO3 (Homo sapiens) (UniProt O14730); assay: Inhibition of RIOK3 (unknown origin) at 1 uM relative to control
[11] = biological target: T2, Interleukin-1 receptor-associated kinase 4 (Mus musculus); assay: Inhibition of IRAK4 in LPS-induced mouse RAW264.7 cells assessed as reduction in JNK level at 1 to 5 uM pretreated with LPS for 1 hr followed by compound administration and measured after 2 hrs by Western blotting analysis; assay type: cell-based; conditions: dose 1-5 µM
[12] = biological target: Tyrosine-protein kinase JAK3 (Homo sapiens) (UniProt P52333); assay: Inhibition of JAK3 (unknown origin) at 1 uM relative to control
[13] = biological target: Serine/threonine-protein kinase RIO1 (Homo sapiens) (UniProt Q9BRS2); assay: Inhibition of RIOK1 (unknown origin) at 1 uM relative to control
[14] = biological target: Mitogen-activated protein kinase kinase kinase kinase 4 (Homo sapiens) (UniProt O95819); assay: Inhibition of MAP4K4 (unknown origin) at 1 uM relative to control
[15] = biological target: Citron Rho-interacting kinase (Homo sapiens) (UniProt O14578); assay: Inhibition of CIT (unknown origin) at 1 uM relative to control
RAW264.7 [16] = assay: Activation of NF-kappaB pathway in LPS-induced mouse RAW264.7 cells at 5 uM pretreated with compound for 1 hr followed by LPS-induction and measured after 6 hrs by flow cytometry analysis; assay type: cell-based; conditions: filed as activator, time 7.0 hrs
[17] = biological target: MAP kinase p38 (Mus musculus) (UniProt P47811+O08911+Q9WUI1+Q9Z1B7); assay: Inhibition of MAPK phosphorylation in LPS-induced mouse RAW264.7 cells at 1 uM pretreated with compound for 1 hr followed by LPS-induction and measured after 2 hrs by Western blot analysis; assay type: cell-based; conditions: time 3.0 hrs
[18] = biological target: Dual specificity mitogen-activated protein kinase kinase 5 (Homo sapiens) (UniProt Q13163); assay: Inhibition of MEK5 (unknown origin) at 1 uM relative to control
[19] = biological target: T2, Interleukin-1 receptor-associated kinase 4 (Mus musculus); assay: Inhibition of IRAK4 in LPS-induced mouse RAW264.7 cells assessed as reduction in ERK level at 1 to 5 uM pretreated with LPS for 1 hr followed by compound administration and measured after 2 hrs by Western blotting analysis; assay type: cell-based; conditions: dose 1-5 µM
RAW264.7 [20] = assay: Activation of NF-kappaB pathway in LPS-induced mouse RAW264.7 cells expressing EGFP at 5 uM pretreated with compound for 1 hr followed by LPS-induction and measured at 15 min by flow cytometry analysis; assay type: cell-based; conditions: filed as activator, time 75.0 min
[21] = biological target: T2, Interleukin-1 receptor-associated kinase 4 (Mus musculus); assay: Inhibition of IRAK4 in LPS-induced mouse RAW264.7 cells assessed as reduction in p65 nuclear translocation at 1 to 5 uM pretreated with LPS for 1 hr followed by compound administration and measured after 2 hrs by immunofluorescence analysis; assay type: cell-based; conditions: dose 1-5 µM
[22] = Drug metabolism in rat hepatocyte assessed as amide hydrolysis-mediated metabolite formation by LC-MS/MS analysis; assay type: ADME, cell-based; conditions: hepatocytes
[23] = biological target: T3, Interleukin-1 receptor-associated kinase 4 (Homo sapiens) (UniProt Q9NWZ3); assay: as §1
T3 sequence (whole entry): T1 sequence (Q9NWZ3 whole entry)

[24] = biological target: Protein cereblon/Interleukin-1 receptor-associated kinase 4 (Homo sapiens, UniProt Q9NWZ3+Q96SW2); assay: PROTAC activity at IRAK4/CRBN in HEK293T cells assessed as induction of IRAK4 degradation by immunoblotting analysis; assay type: cell-based

Sequence of Protein cereblon/Interleukin-1 receptor-associated kinase 4 (Mus musculus) (Q8C7D2 whole entry, looked up, one chain of several): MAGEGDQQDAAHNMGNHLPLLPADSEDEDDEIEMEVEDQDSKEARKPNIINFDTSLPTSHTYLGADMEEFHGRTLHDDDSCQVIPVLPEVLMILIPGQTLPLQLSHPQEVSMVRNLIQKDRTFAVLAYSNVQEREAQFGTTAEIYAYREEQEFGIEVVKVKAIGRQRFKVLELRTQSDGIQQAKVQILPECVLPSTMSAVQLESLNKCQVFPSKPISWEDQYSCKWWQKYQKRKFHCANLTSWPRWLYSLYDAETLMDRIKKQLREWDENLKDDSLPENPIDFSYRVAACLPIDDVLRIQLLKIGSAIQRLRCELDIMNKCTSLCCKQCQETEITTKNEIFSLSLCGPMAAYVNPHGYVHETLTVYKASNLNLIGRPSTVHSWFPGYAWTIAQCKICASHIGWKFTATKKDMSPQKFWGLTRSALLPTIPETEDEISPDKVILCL
Sequence of Tyrosine-protein kinase JAK1 (Homo sapiens) (P23458 whole entry): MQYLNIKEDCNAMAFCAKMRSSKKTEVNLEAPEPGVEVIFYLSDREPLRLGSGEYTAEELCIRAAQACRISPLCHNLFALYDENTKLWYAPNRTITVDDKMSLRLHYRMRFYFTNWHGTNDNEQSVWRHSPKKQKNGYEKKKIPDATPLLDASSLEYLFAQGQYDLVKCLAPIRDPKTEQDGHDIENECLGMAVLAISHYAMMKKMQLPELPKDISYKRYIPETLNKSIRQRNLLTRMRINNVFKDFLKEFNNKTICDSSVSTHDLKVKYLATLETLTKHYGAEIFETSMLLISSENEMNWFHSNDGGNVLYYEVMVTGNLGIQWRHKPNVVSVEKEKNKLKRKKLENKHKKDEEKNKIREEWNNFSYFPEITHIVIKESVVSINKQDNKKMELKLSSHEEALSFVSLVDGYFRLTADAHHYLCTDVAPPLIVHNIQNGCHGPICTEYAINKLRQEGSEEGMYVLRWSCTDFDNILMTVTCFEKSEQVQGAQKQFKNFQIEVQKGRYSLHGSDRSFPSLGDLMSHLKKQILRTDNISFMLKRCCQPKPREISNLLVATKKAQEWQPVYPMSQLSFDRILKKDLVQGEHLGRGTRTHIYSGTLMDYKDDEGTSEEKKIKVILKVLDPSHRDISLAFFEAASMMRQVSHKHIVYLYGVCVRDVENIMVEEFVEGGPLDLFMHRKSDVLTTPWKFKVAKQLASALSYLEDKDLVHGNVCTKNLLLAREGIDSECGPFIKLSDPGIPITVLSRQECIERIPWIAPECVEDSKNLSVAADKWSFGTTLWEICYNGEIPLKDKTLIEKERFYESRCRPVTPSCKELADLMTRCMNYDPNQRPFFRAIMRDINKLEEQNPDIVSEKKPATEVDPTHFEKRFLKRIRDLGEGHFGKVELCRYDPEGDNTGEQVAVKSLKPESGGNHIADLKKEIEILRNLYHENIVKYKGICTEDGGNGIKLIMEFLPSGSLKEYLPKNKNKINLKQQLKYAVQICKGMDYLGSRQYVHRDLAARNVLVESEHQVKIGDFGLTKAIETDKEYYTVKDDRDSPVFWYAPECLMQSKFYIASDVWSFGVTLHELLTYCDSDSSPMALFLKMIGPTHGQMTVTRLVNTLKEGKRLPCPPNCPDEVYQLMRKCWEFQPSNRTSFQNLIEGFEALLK
Sequence of TRAF2 and NCK-interacting protein kinase (Homo sapiens) (Q9UKE5 whole entry, looked up): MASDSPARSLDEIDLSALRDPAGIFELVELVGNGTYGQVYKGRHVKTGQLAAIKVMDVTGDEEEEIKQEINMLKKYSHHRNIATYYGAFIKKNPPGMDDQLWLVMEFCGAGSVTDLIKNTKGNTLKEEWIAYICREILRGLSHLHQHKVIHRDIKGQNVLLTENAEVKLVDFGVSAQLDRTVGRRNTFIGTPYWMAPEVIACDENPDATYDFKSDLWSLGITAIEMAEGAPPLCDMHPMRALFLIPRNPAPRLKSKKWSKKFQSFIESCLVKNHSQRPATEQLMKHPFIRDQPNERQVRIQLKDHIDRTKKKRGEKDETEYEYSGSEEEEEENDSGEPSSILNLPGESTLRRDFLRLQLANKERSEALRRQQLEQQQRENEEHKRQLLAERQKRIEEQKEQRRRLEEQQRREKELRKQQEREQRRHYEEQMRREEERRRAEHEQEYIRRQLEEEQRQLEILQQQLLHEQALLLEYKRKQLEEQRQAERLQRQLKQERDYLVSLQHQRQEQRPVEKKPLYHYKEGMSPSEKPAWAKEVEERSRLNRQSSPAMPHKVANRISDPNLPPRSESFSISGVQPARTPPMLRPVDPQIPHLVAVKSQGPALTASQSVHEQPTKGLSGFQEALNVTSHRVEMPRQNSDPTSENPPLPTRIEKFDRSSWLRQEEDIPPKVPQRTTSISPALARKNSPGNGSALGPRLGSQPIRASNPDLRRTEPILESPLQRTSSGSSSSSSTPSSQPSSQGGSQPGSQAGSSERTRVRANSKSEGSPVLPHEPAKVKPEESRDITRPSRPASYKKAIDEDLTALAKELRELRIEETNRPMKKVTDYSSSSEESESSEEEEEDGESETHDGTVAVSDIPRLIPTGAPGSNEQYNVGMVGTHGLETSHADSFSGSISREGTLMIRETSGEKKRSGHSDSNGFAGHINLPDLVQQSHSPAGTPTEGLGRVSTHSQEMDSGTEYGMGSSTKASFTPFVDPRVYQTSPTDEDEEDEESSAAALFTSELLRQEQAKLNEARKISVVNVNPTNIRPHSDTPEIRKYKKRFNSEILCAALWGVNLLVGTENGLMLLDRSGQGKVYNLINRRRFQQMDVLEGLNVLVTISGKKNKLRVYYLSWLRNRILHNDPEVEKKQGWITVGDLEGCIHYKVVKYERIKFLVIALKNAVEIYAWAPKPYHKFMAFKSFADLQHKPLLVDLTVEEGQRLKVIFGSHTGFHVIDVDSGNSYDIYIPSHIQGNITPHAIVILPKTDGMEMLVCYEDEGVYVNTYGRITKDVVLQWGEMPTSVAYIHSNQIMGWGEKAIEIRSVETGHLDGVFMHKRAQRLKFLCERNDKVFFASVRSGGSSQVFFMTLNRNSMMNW
Sequence of Mitogen-activated protein kinase kinase kinase 19 (Homo sapiens) (Q56UN5 whole entry): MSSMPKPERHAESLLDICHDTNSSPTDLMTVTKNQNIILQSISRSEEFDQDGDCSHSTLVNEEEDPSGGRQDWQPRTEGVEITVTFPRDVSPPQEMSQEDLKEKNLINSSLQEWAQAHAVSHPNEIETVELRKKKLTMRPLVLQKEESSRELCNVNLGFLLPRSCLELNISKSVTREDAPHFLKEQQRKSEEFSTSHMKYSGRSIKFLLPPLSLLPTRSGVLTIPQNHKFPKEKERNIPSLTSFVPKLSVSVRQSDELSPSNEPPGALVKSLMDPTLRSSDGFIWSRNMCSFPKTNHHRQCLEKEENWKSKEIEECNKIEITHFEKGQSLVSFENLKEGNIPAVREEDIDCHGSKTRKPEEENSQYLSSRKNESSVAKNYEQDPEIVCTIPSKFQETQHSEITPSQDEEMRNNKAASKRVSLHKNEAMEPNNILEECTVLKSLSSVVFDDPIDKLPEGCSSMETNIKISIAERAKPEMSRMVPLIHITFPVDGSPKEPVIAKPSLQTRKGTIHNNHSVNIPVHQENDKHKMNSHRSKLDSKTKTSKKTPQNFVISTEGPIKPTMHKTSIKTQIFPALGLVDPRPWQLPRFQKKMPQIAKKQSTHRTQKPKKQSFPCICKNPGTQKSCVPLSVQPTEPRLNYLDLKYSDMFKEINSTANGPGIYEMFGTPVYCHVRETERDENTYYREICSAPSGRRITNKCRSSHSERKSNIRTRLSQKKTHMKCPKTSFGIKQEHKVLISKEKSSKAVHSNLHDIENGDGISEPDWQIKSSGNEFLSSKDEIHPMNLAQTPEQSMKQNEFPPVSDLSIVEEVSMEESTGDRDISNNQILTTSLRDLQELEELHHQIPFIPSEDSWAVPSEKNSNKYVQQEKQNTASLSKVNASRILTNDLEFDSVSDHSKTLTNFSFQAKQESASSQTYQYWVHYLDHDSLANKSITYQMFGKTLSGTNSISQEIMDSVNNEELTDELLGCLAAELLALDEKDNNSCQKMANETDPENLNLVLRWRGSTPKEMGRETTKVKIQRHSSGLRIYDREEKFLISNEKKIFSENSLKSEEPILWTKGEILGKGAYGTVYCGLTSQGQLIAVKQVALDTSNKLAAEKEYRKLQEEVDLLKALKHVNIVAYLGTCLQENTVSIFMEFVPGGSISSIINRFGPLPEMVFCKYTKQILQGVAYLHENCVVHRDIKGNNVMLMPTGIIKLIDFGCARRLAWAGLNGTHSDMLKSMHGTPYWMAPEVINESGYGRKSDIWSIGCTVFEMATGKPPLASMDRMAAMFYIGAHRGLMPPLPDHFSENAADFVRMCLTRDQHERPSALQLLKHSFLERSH
Sequence of Serine/threonine-protein kinase RIO3 (Homo sapiens) (O14730 whole entry): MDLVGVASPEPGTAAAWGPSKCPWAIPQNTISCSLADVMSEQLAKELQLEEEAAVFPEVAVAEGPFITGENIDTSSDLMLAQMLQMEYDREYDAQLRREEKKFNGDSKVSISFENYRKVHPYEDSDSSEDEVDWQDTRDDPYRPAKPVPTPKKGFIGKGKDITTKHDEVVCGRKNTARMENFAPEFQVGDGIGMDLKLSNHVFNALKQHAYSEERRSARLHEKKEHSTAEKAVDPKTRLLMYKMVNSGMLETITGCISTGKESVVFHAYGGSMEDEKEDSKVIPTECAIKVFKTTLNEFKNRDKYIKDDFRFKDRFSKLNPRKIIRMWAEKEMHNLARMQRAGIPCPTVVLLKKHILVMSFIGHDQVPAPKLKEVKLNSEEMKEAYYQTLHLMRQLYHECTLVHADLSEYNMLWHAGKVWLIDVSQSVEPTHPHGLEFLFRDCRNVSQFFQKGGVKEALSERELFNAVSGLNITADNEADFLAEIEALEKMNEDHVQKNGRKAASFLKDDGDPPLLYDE

Question: With COc1cc(N2CCN(C(=O)C3CN(c4ccc5c(c4)C(=O)N(C4CCC(=O)NC4=O)C5=O)C3)CC2)ccc1NC(=O)c1cccc(-c2ccn[nH]2)n1 (stereo not given) as the compound, how does the IC50 [1] read?
Answer: Its IC50 is < 100 nM.

Question: What about the Activity [2] of the same compound?
Answer: Its Activity is 26%.

Question: What does the source list for COc1cc(N2CCOCC2)ccc1NC(=O)c1cccc(-c2ccn[nH]2)n1?
Answer: inhibition [3]: inactive; inhibition [4]: Active; Activity (Mus musculus): Active; inhibition [5]: inactive; inhibition [6]: inactive; Activity (RAW264.7 [7]): Active; inhibition [8]: > 95%; inhibition [9]: Active; inhibition [10]: > 95%; inhibition [11]: Active; inhibition [12]: inactive; inhibition [13]: inactive; inhibition [14]: inactive; inhibition [15]: inactive; Activity (RAW264.7 [16]): Active; Activity [2]: 100%; inhibition [17]: Active; inhibition [18]: inactive; inhibition [19]: Active; Activity (RAW264.7 [20]): Active; inhibition [21]: Active

Question: With COc1cc(N2CCN(C(=O)CCCCCNc3cccc4c3C(=O)N(C3CCC(=O)NC3=O)C4=O)CC2)ccc1NC(=O)c1cccc(-c2ccn[nH]2)n1 (stereo not given) as the compound, how does the IC50 [1] read?
Answer: The IC50 was < 100 nM.

Question: What about the Activity [2] of the same compound?
Answer: Its Activity is 55%.

Question: Which IC50 [1] does the source give for COc1cc(N2CCN(C(=O)CCCCCCCCCCCNc3cccc4c3C(=O)N(C3CCC(=O)NC3=O)C4=O)CC2)ccc1NC(=O)c1cccc(-c2ccn[nH]2)n1 (stereo not given) here?
Answer: Its IC50 is < 100 nM.

Question: And the Activity [2]?
Answer: The Activity was 32%.

Question: For COc1cc(N2CCN(CC(=O)NCCOCCOCCNc3cccc4c3C(=O)N(C3CCC(=O)NC3=O)C4=O)CC2)ccc1NC(=O)c1cccc(-c2ccn[nH]2)n1 (stereo not given), which Drug metabolism [22] is on record?
Answer: Its Drug metabolism is “Metabolite_Detected”.

Question: For COc1cc(N2CCN(CC(=O)NCCOCCOCCNC(=O)C3CCN(c4ccc5c(c4)C(=O)N(C4CCC(=O)NC4=O)C5=O)CC3)CC2)ccc1NC(=O)c1cccc(-c2ccn[nH]2)n1 (stereo not given), which inhibition [23] is on record?
Answer: The inhibition was “inactive”.

Question: With CC(C)Nc1cc(-n2ccc3cc(C#N)cnc32)ncc1C(=O)NC1CCC(C(=O)NCCOCCNC(=O)COc2cccc3c2C(=O)N(C2CCC(=O)NC2=O)C3=O)CC1 (stereo not given) as the compound, how does the DC50 [24] read?
Answer: The DC50 was 405 nM.

Question: Which inhibition [23] does the source give for COc1cc(N2CCN(CC(=O)NCCOCCOCCOCCOCCNc3cccc4c3C(=O)N(C3CCC(=O)NC3=O)C4=O)CC2)ccc1NC(=O)c1cccc(-c2ccn[nH]2)n1 (stereo not given) here?
Answer: The inhibition was “inactive”.

Question: For COc1cc(N2CCN(CC(=O)NCCCCCCCCNc3cccc4c3C(=O)N(C3CCC(=O)NC3=O)C4=O)CC2)ccc1NC(=O)c1cccc(-c2ccn[nH]2)n1 (stereo not given), which inhibition [23] is on record?
Answer: The inhibition was “inactive”.

Question: Which inhibition [23] does the source give for COc1cc(N2CCN(C(=O)C3CCN(c4ccc5c(c4)C(=O)N(C4CCC(=O)NC4=O)C5=O)CC3)CC2)ccc1NC(=O)c1cccc(-c2ccn[nH]2)n1 (stereo not given) here?
Answer: Its inhibition is “inactive”.

Question: For COc1cc(N2CCN(CC(=O)NCCNc3cccc4c3C(=O)N(C3CCC(=O)NC3=O)C4=O)CC2)ccc1NC(=O)c1cccc(-c2ccn[nH]2)n1 (stereo not given), which IC50 [1] is on record?
Answer: Its IC50 is < 100 nM.

Question: And the Activity [2]?
Answer: Its Activity is 63%.
